Measured values published in article PMC10539800, “Small-molecule inhibitors of the PDZ domain of Dishevelled proteins interrupt Wnt signalling” (Magnetic resonance, 2021).
“Also recorded” adds a separate entry of the source.

Key:
[1] = test system: β-catenin protein level in HeLa cells; assay: Western blotting of β-catenin levels; format: cell-based; conditions: HeLa cells treated with Wnt3a, 24 h; 150 µM
Description: (§1) Increased β -catenin protein level is a hallmark of active Wnt signalling (Kishida et al., 1999). Once β -catenin is accumulated in the cytoplasm, it can translocate into the nucleus and activate the transcription of Wnt target genes by interacting with transcription factors of the TCF/LEF family (Fig. 2a) (Behrens et al., 1996). […] Increased mRNA levels of the Wnt target genes Axin2, LEF1, and Bmp2 (Riese et al., 1997; Jho et al., 2002; Lewis et al., 2010) were induced by Wnt3a treatment, as measured by qRT-PCR, and these increases were reduced by compounds 18, 20, and 21 (Fig. 2f).
To assess the β -catenin accumulation in HeLa cells, cells were treated with Wnt3a in the presence of Dvl inhibitors for 24 h and lysed in RIPA buffer (50 mM Tris, pH 8.0, 1 % NP-40, 0.5 % deoxycholate, 0.1 % SDS, 150 mM NaCl). Equal amounts of protein were loaded on a SDS-PAGE. Separated proteins were blotted onto PVDF membranes (polyvinylidene fluoride) for immunoblot analysis using anti- β -catenin antibody (610154, BD). HRP-conjugated anti-mouse antibody (715-035-150, Jackson ImmunoResearch Laboratories) was used for secondary detection with Western lightning chemiluminescence reagent plus (PerkinElmer) and Vilber Lourmat imaging system SL-3.

Dvl-3 PDZ = target: T1, Dvl-3 PDZ (Homo sapiens, UniProt Q92997); assay: Binding constant by isothermal titration calorimetry (ITC); conditions: for T Δ S Dvl-3 PDZ / Δ G Dvl-3 PDZ / Δ H Dvl-3 PDZ: ITC; for Kd: by ITC, one-site binding model, 25 °C, read-out: K D Dvl-3 PDZ
T1 construct: spectra of Dvl-3 PDZ in the absence and presence of the compound; His-tag (cleaved yes); made in house
T1 sequence (Q92997 243-336): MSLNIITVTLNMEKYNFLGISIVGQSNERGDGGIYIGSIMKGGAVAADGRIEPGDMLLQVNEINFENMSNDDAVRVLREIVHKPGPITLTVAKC
Protocol: (§5) Isothermal titration calorimetry (ITC) experiments were performed using a VP-ITC system (MicroCal). Protein in 20 mM HEPES buffer and 50 mM NaCl (pH 7.4) was centrifuged and degassed before the experiment. A 200 µM ligand solution containing 2 % DMSO was injected 30 times in 10 µL aliquots at 120 s intervals with a stirring speed of 1000 rpm into a 1.4 mL sample cell containing the Dvl PDZ domain at a concentration of 20 µM at 25 ^∘ C. Control experiment was initially determined by titrating ligand into buffer at the same conditions. […] Thermodynamic properties and binding constants were determined by fitting the data with a non-linear least-squares routine using a single-site binding model with Origin (OriginLab) for ITC v.7.2 (MicroCal).

SW480 cells [2] = assay: Trans-well migration assay; format: cell-based; conditions: 24 h, 50–100 µM
Protocol: (§2) Canonical Wnt signalling contributes to cancer progression by inducing high motility and invasion of cancer cells while retaining the self-renewal property of cancer-initiating cells (Fritzmann et al., 2009; Sack et al., 2011; Vermeulen et al., 2010; Malanchi et al., 2008). […] Compounds 18 and 20 prevented increased cell migration and sphere formation.
Cell motility was assessed using 24-well trans-well assay (pore diameter: 8 µm , Corning). SW480WL cells were seeded in the upper chamber in serum-free DMEM with 0.1 % BSA; 20 % serum was supplemented to medium in the lower chamber. After incubation with Wnt3a in the presence of Dvl inhibitors for 24 h, non-migrant cells were scraped off using a cotton swab; the migrated cells on the filters were stained with DAPI, photographed, and counted.

SW480 cells [3] = assay: Colon sphere culture (sphere formation); format: cell-based; conditions: serum-free non-adherent culture, 10 d; 25–50 µM
Protocol: as §2
SW480WL cells were trypsinized into single cells, seeded on 24-well cell culture plates, pre-coated with 250 µL poly-HEMA (12 mg mL ^-1 in 95 % ethanol, Sigma) per well, and incubated with Wnt3a in the presence of Dvl inhibitors in the sphere culture medium (F12 : DMEM 1:1 , 1 × B-27 supplement, 20 ng mL ^-1 EGF, 20 ng mL ^-1 FGF, 0.5 % methylcellulose) for 10 d. Numbers of spheres were then counted under the microscope.

[4] = test system: Wnt target genes (Axin2, LEF1, Bmp2) in HeLa cells; assay: qRT-PCR of Wnt target genes; format: cell-based; conditions: HeLa cells treated with Wnt3a, 24 h; 150 µM
Description: as §1
To measure the Wnt target accumulation at mRNA level, HeLa cells were treated with Wnt3a in the presence of Dvl inhibitors for 24 h. mRNA was extracted according to the standard TRIzol® protocol (Invitrogen) and reverse-transcribed using random primers (Invitrogen) and M-MLV reverse transcriptase (Promega). The qRT-PCR was performed in a iQ5 multi-colour real-time PCR detection system (Bio-Rad) using SYBR® Green (Thermo Scientific) and gene-specific primer pairs of Bmp2, Axin2, LEF1, and β -actin (endogenous control).

Dvl-1 PDZ = target: T2, Dvl-1 PDZ (Homo sapiens, UniProt O14640, C338S/V250I); conditions: for T Δ S Dvl-1 PDZ / Δ G Dvl-1 PDZ / Δ H Dvl-1 PDZ: ITC
T2 sequence (O14640 245-338 V250I/C338S): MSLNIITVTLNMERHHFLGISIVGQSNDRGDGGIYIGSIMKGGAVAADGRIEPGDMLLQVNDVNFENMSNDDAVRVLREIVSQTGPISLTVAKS
Protocol: as §5

[5] = test system: canonical Wnt signalling (β-catenin/TCF-dependent GFP) in HEK293 reporter cell line; assay: TOP-GFP reporter assay (Wnt3a-induced); format: cell-based; conditions: Homo sapiens, 24 h, read-out: IC 50 Wnt3a-induced Wnt activation (TOP-GFP)
Description: Taking advantage of a lentivirus that encodes GFP in a β -catenin/TCF-dependent fashion (TOP-GFP, SABiosciences), a stable HEK293 reporter cell line was established to evaluate the inhibitory effect of compounds 18, 20, and 21 on canonical Wnt signalling activity. TOP-GFP expression in this cell line was induced by the ligand Wnt3a, which directly activates the Frizzled–Dishevelled complex and protects β -catenin from degradation by the destruction complex (Fig. 2a).
The lentivirus particle (CCS-018L, SABiosciences) encoding GFP under the control of a basal promoter element (TATA box) joined to tandem repeats of a consensus TCF/LEF binding site was transfected into HEK293 cells. Stable cells were selected by puromycin (2 µgmL^-1 ) treatment. Wnt signalling activity indicated by GFP intensity was measured by flow cytometry after 24 h incubation with recombinant mouse Wnt3a (100 ng mL ^-1 ) or GSK3 inhibitor CHIR99021 (3 µM ) in the presence of Dvl inhibitors.

NF-κB signalling = assay: NF-κB-luciferase reporter assay; format: cell-based; conditions: stimulated by recombinant TNFα
Protocol: (§3) To further evaluate the specificity of our Dvl inhibitors, the conventional TOPflash (Molenaar et al., 1996) and other luciferase reporter assays were performed.
(§4) Plasmids encoding a firefly luciferase reporter gene under the control of different responsive elements were transfected into HeLa cells with a pRL-SV40 normalization reporter plasmid using the Lipofectamine 2000 (Invitrogen). After desired treatment, cells were harvested in the passive lysis buffer (Promega), and 15 µL cell lysate was transferred to 96-well LumiNunc plates (Thermo Scientific). Firefly luciferase and Renilla luciferase were detected with the D-luciferin buffer (75 mM HEPES, 4 mM MgSO 4 , 20 mM DTT, 100 µM EDTA, 0.5 mM ATP, 135 µM Coenzyme A, and 100 µM D-Luciferin sodium salt; pH 8.0) and the coelenterazine buffer (15 mM Na4PPi, 7.5 mM NaAc, 10 mM CDTA, 400 mM Na 2 SO 4 , 25 µM APMBT, and 1.1 µM coelenterazine; pH 5.0), respectively, using the CentroXS LB960 lumiometer (Berthold Technologies).

[6] = test system: Wnt signalling (TOP-luciferase) in HeLa cells; assay: TOPflash luciferase reporter assay; format: cell-based
Protocol: as §3, §4

Oct4 = assay: Oct-luciferase reporter assay; format: cell-based; conditions: stimulated by overexpression of Oct4
Protocol: as §3, §4

Notch signalling = assay: Notch-luciferase reporter assay; format: cell-based; conditions: stimulated by overexpression of Notch intracellular domain
Protocol: as §3, §4

Dvl PDZ = conditions: internal Frizzled sequence; ref Wong et al., 2003; Chandanamali et al., 2009; read-out: K D Dvl PDZ domains; cited from earlier work

Molecule | accumulation of β-catenin [1] | T Δ S Dvl-3 PDZ (Dvl-3 PDZ) [kcal mol ^-1] | Δ G Dvl-3 PDZ (Dvl-3 PDZ) [kcal mol ^-1] | Δ H Dvl-3 PDZ (Dvl-3 PDZ) [kcal mol ^-1] | n (stoichiometry) Dvl-3 PDZ (Dvl-3 PDZ; ITC one-site fit) | Kd (Dvl-3 PDZ) [µM] | migration of SW480 cells enhanced by Wnt3a (SW480 cells [2]) | sphere formation of SW480 cells enhanced by Wnt3a (SW480 cells [3]) | transcription of Wnt target genes (Axin2, LEF1, Bmp2) [4] | T Δ S Dvl-1 PDZ (Dvl-1 PDZ) [kcal mol ^-1] | Δ G Dvl-1 PDZ (Dvl-1 PDZ) [kcal mol ^-1] | Δ H Dvl-1 PDZ (Dvl-1 PDZ) [kcal mol ^-1] | n (stoichiometry) Dvl-1 PDZ (Dvl-1 PDZ; ITC one-site fit) | IC50 [5] [µM] | effect on NF-κB-luciferase (NF-κB signalling) | effect on Chir99021-induced Wnt activation (TOPflash) [6] | effect on TOP-luciferase signals stimulated by Wnt3a [6] | effect on Oct-luciferase (Oct4) | effect on Notch-luciferase (Notch signalling) | Kd (Dvl PDZ) [µM]
Cc1ccc(NS(=O)(=O)c2ccc(CNC(=O)c3n[nH]c4ccccc34)c(Cl)c2)c(C(=O)O)c1 [Compound 18] | inhibited accumulation | -1.2 | -6.7 | -8.0 | 1.14 | 9.4 ± 0.6 | reduced the migration; also recorded: prevented | reduced sphere formation; also recorded: prevented | reduced the transcription | -4.7 | -7.5 | -12.2 | 1.12 | 50 to 75 |  |  |  |  |  | 
Cc1ccc(NS(=O)(=O)c2ccc(CNC(=O)c3cc(Br)c[nH]3)c(Cl)c2)c(C(=O)O)c1 [Compound 20] | inhibited accumulation | -3.6 | -6.8 | -10.4 |  | 9.8 ± 0.3 | reduced the migration; also recorded: prevented | reduced sphere formation; also recorded: prevented | reduced the transcription | -2.2 | -7.2 | -9.4 |  | 50 to 75 | no or a mild effect; also recorded: no significant inhibitory effects | no or a mild effect | specifically inhibited | no or a mild effect; also recorded: no significant inhibitory effects | no or a mild effect; also recorded: no significant inhibitory effects | 
Cc1ccc(NS(=O)(=O)c2ccc(CNC(=O)c3cc(Cl)c[nH]3)c(Cl)c2)c(C(=O)O)c1 [Compound 21] | inhibited accumulation | 0.7 | -6.8 | -5.9 |  | 12.5 ± 0.5 |  |  | reduced the transcription | -1.5 | -7.0 | -8.5 |  | 50 to 75 |  |  |  |  |  | 
Frizzled peptide 525(GKTLQSWRRFYH)536: Frizzled peptide with internal sequence KTXXXW recognized by Dvl PDZ domains |  |  |  |  |  |  |  |  |  |  |  |  |  |  |  |  |  |  |  | ~10
